According to PMC10907298 (Nature chemical biology, 2023):
Values joined by “and” are separate entries in the source; they are usually repeats but may differ in a detail not shown here. Identical values can stand only once.

Legend:
human STING (WT) = human STING (WT) (Homo sapiens, UniProt Q86WV6); assay: ISRE reporter assay with STING co-transfection in HEK293T cells; format: cell-based
[1] = biological target: hSTING(1–153)–mSTING(153–378) chimera (Homo sapiens, UniProt Q86WV6, A215V/A300E/A302V/A313V/A318T/A350V/D237N/D297E/D320G/E174G/E362R/E369D/G230I/G344N/H185L/H232R/I244V/K224M/K347M/K370Q/L189M/L202F/L222R/L247I/L333I/L346P/M214V/M357L/Q196R/Q276K/Q306R/R191S/R253P/S275A/S321N/S345A/S353P/T181M/T229N/T256V/T354P/T356V/V194G/V258I/V343M/V351A/Y182F/Y186H/Y274D); assay: as above; format: cell-based, human/mouse; details: for ISRE reporter activity, mean: h(1-153)/m(153-378)STING
Chain of hSTING(1–153)–mSTING(153–378) chimera (Q86WV6 with tags, fused parts or gaps with the stated changes): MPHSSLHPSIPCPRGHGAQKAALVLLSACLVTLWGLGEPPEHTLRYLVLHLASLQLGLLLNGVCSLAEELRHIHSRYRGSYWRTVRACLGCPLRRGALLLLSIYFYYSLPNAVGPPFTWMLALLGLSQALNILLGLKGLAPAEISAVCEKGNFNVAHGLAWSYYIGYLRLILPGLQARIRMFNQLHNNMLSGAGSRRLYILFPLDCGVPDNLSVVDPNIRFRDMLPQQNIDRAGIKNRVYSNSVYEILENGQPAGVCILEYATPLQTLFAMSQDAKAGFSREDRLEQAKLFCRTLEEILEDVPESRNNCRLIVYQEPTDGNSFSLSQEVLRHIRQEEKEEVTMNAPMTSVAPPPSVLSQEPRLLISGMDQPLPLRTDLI

wild-type hSTING-GFP = wild-type hSTING-GFP (Homo sapiens, UniProt Q86WV6); assay: STING translocation/aggregate (puncta) assay in HEK293T cells; format: cell-based; details: 50 μM, overnight
Chain of wild-type hSTING-GFP (Q86WV6 whole entry): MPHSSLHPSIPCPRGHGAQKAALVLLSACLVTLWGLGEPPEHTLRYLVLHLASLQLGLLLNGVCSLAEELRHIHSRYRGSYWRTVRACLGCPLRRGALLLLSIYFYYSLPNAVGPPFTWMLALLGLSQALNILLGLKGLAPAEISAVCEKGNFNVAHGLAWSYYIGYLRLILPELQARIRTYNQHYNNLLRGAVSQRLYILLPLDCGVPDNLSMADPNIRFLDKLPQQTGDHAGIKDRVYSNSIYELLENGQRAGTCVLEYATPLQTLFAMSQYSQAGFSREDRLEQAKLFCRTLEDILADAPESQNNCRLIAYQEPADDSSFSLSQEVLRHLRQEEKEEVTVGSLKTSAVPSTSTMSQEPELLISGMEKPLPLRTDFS

hSTING(R95A)-GFP = hSTING(R95A)-GFP (Homo sapiens, UniProt Q86WV6, R95A); assay: as above; format: cell-based; details: 50 μM, overnight
Chain of hSTING(R95A)-GFP (Q86WV6 whole entry R95A): as the sequence (Q86WV6 whole entry) above, with R95A counted along it

BMDM, mSTING Indel/Indel = assay: IP10 induction in bone marrow-derived macrophages; format: cell-based, mouse; details: 50μM, n=1
[2] = system: BMDM, human STING knock-in; assay: IP10 induction in bone marrow-derived macrophages; format: cell-based, mouse; details: 50μM, n=1
IFN-γ = IFN-γ level 6 h after intratumoral injection (MSD); format: in vivo, mouse; details: for IFNg: 6 hours post-dosing, B16-SIY, hSTING KI mice, individual animals
[3] = biological target: purified human STING (wild-type) (Homo sapiens, UniProt Q86WV6); assay: native gel analysis of STING oligomerization; details: compound alone, 40 μM, hSTING 20 μM
Chain of purified human STING (wild-type) (Q86WV6 1-343): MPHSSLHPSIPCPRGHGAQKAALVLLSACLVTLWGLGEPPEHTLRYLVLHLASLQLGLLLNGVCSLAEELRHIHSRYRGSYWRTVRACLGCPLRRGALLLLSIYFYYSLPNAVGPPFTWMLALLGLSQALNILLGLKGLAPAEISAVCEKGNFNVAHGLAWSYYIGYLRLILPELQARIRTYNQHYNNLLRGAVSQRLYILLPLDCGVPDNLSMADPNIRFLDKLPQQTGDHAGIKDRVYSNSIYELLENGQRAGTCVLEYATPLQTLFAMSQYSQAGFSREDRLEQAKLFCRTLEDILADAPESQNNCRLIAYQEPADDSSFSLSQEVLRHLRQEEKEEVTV

human STING S27V = human STING S27V (Homo sapiens, UniProt Q86WV6, S27V); assay: ISRE reporter assay with STING co-transfection in HEK293T cells
Chain of human STING S27V (Q86WV6 whole entry S27V): as the sequence (Q86WV6 whole entry) above, with S27V counted along it

human STING I103S = human STING I103S (Homo sapiens, UniProt Q86WV6, I103S); assay: as above
Chain of human STING I103S (Q86WV6 whole entry I103S): as the sequence (Q86WV6 whole entry) above, with I103S counted along it

human STING L134A = human STING L134A (Homo sapiens, UniProt Q86WV6, L134A); assay: as above
Chain of human STING L134A (Q86WV6 whole entry L134A): as the sequence (Q86WV6 whole entry) above, with L134A counted along it

human STING R95E = human STING R95E (Homo sapiens, UniProt Q86WV6, R95E); assay: as above
Chain of human STING R95E (Q86WV6 whole entry R95E): as the sequence (Q86WV6 whole entry) above, with R95E counted along it

human STING R95K = human STING R95K (Homo sapiens, UniProt Q86WV6, R95K); assay: as above
Chain of human STING R95K (Q86WV6 whole entry R95K): as the sequence (Q86WV6 whole entry) above, with R95K counted along it

human STING Y240C = human STING Y240C (Homo sapiens, UniProt Q86WV6, Y240C); assay: as above
Chain of human STING Y240C (Q86WV6 whole entry Y240C): as the sequence (Q86WV6 whole entry) above, with Y240C counted along it

human STING R238A = human STING R238A (Homo sapiens, UniProt Q86WV6, R238A); assay: as above; details: for ISRE reporter activity, mean: STING R238A
Chain of human STING R238A (Q86WV6 whole entry R238A): as the sequence (Q86WV6 whole entry) above, with R238A counted along it

human STING = human STING (Homo sapiens, UniProt Q86WV6, G230A/R293Q/R71H); assay: THP1-Dual ISRE-Luc reporter gene assay (primary screen and dose response); details: for THP1-Dual reporter activity: single replicates (n=2)
Chain of human STING (Q86WV6 whole entry R71H/G230A/R293Q): as the sequence (Q86WV6 whole entry) above, with R71H, G230A, R293Q counted along it

Chain of human STING (WT) (Q86WV6 whole entry): as the sequence (Q86WV6 whole entry) above

ISRE reporter activity, mean (human STING (WT); STING WT, Log[μM] 1.22185, Figure S1c and d): 17.6344
ISRE reporter activity, mean (human STING (WT); STING WT, Log[μM] 1.69897, Figure S1c and d): 5.278
ISRE reporter activity, mean (human STING (WT); WT, Log[μM] 0.3, Figure 3c): 91.1301
ISRE reporter activity, mean (human STING (WT); WT, Log[μM] 1, Figure 3c): 89.4692
ISRE reporter activity, mean (human STING (WT); WT, Log[μM] -0.4, Figure 3c): 17.8606
ISRE reporter activity, mean (human STING (WT); WT, Log[μM] -1.1, Figure 3c): 10.1153
ISRE reporter activity, mean (human STING (WT); WT, Log[μM] -1.8, Figure 3c): -0.2753
ISRE reporter activity, mean (human STING (WT); WT, Log[μM] -2.49, Figure 3c): -1.7095
ISRE reporter activity, mean (human STING (WT); WT, Log[μM] -3.19, Figure 3c): -1.3729
ISRE reporter activity, mean (human STING (WT); hSTING WT, Log[μM] 0.2): 21.1 and 30.1
ISRE reporter activity, mean (human STING (WT); hSTING WT, Log[μM] 0.5): 33.4 and 42.4
ISRE reporter activity, mean (human STING (WT); hSTING WT, Log[μM] 0.8): 39.5 and 52.4
ISRE reporter activity, mean (human STING (WT); hSTING WT, Log[μM] 1.1): 50.3 and 59.2
ISRE reporter activity, mean (human STING (WT); hSTING WT, Log[μM] 1.4): 53.6 and 53.1
ISRE reporter activity, mean (human STING (WT); hSTING WT, Log[μM] -1.3): 1.2 and 1.5
STING activation in words (human STING (WT); human STING): specifically activated human STING
ISRE reporter activity, mean ([1]; Log[μM] 0.2): 5.4
ISRE reporter activity, mean ([1]; Log[μM] 0.5): 12
ISRE reporter activity, mean ([1]; Log[μM] 0.8): 17.4
ISRE reporter activity, mean ([1]; Log[μM] 1.1): 24.2
ISRE reporter activity, mean ([1]; Log[μM] 1.4): 26.3
ISRE reporter activity, mean ([1]; Log[μM] -0.1): 2.6
ISRE reporter activity, mean ([1]; Log[μM] -0.4): 1.4
ISRE reporter activity, mean ([1]; Log[μM] -0.7): 0.8
ISRE reporter activity, mean ([1]; Log[μM] -1): 0.7
ISRE reporter activity, mean ([1]; Log[μM] -1.3): 0.7
STING activation in words ([1]; hSTING TMD–mSTING LBD chimera): induced significant activation
puncta-like structure formation in words (wild-type hSTING-GFP): only the wild-type was responsive
ISRE reporter activity, mean (human STING S27V; Log[μM] 0.2): 28.6
ISRE reporter activity, mean (human STING S27V; Log[μM] 0.5): 35.2
ISRE reporter activity, mean (human STING S27V; Log[μM] 0.8): 40.6
ISRE reporter activity, mean (human STING S27V; Log[μM] 1.1): 46.1
ISRE reporter activity, mean (human STING S27V; Log[μM] 1.4): 46.2
ISRE reporter activity, mean (human STING S27V; Log[μM] -0.1): 22.7
ISRE reporter activity, mean (human STING S27V; Log[μM] -0.4): 13.4
ISRE reporter activity, mean (human STING S27V; Log[μM] -0.7): 7.4
ISRE reporter activity, mean (human STING S27V; Log[μM] -1): 3.8
ISRE reporter activity, mean (human STING S27V; Log[μM] -1.3): 1.4
ISRE reporter activity, mean (human STING I103S; Log[μM] 0.2): 30.5
ISRE reporter activity, mean (human STING I103S; Log[μM] 0.5): 41.9
ISRE reporter activity, mean (human STING I103S; Log[μM] 0.8): 48.4
ISRE reporter activity, mean (human STING I103S; Log[μM] 1.1): 57
ISRE reporter activity, mean (human STING I103S; Log[μM] 1.4): 55.6
ISRE reporter activity, mean (human STING I103S; Log[μM] -0.1): 23.3
ISRE reporter activity, mean (human STING I103S; Log[μM] -0.4): 12.5
ISRE reporter activity, mean (human STING I103S; Log[μM] -0.7): 7.7
ISRE reporter activity, mean (human STING I103S; Log[μM] -1): 3.3
ISRE reporter activity, mean (human STING I103S; Log[μM] -1.3): 1.4
STING activation in words (human STING L134A): various degrees of reduction
ISRE reporter activity, mean (human STING L134A; Log[μM] 0.3, Figure 3c): 5.454
ISRE reporter activity, mean (human STING L134A; Log[μM] 1, Figure 3c): 26.4486
ISRE reporter activity, mean (human STING L134A; Log[μM] -0.4, Figure 3c): 2.468
ISRE reporter activity, mean (human STING L134A; Log[μM] -1.1, Figure 3c): -1.106
ISRE reporter activity, mean (human STING L134A; Log[μM] -1.8, Figure 3c): 1.759
ISRE reporter activity, mean (human STING L134A; Log[μM] -2.49, Figure 3c): 2.73
ISRE reporter activity, mean (human STING L134A; Log[μM] -3.19, Figure 3c): 5.607
STING activation in words (human STING R95E): essentially irresponsive
STING activation in words (human STING R95K): partially active
STING activation in words (human STING Y240C): maintained full agonist activity
STING activation in words (human STING R238A; R238A): maintained full agonist activity
ISRE reporter activity, mean (human STING R238A; Log[μM] 0.267606): 22.8148
ISRE reporter activity, mean (human STING R238A; Log[μM] 0.744728): 30.7761
ISRE reporter activity, mean (human STING R238A; Log[μM] 1.22185): 19.5642
ISRE reporter activity, mean (human STING R238A; Log[μM] 1.69897): 5.793
ISRE reporter activity, mean (human STING R238A; Log[μM] -0.209515): 16.4448
ISRE reporter activity, mean (human STING R238A; Log[μM] -0.686637): 8.4
ISRE reporter activity, mean (human STING R238A; Log[μM] -1.16376): 4.954
ISRE reporter activity, mean (human STING R238A; Log[μM] -4.30103): 2.802
improvement of AC50 over NVS-STG1 (human STING): ~10 fold
induction of ISRE-Luc reporter (human STING): over 100 fold
THP1-Dual reporter activity (human STING; 97.7 nM): 10.063 and -15.21
THP1-Dual reporter activity (human STING; 195 nM): 30.21 and -21.271
THP1-Dual reporter activity (human STING; 391 nM): 28.405 and -4.368
THP1-Dual reporter activity (human STING; 781 nM): -15.248 and 7.115
THP1-Dual reporter activity (human STING; 1563 nM): 29.455 and 0.573
THP1-Dual reporter activity (human STING; 3125 nM): 539.702 and 407.097
THP1-Dual reporter activity (human STING; 6250 nM): 5408.19 and 4554.72
THP1-Dual reporter activity (human STING; 12500 nM): 9931.09 and 8981.43
THP1-Dual reporter activity (human STING; 25000 nM): 8940.66 and 8036.74
SMILES: COc1cc(C(=O)O)ccc1NCc1ccc(C2(C(C)(C)C)OCC(C)(C)CO2)cc1 [NVS-STG2]
puncta-like structure formation in words (hSTING(R95A)-GFP): lost the ability to form puncta-like structures
IP10 (BMDM, mSTING Indel/Indel): 20 pg/mL
IP10 ([2]; BMDM hSTING+/+): 5284 pg/mL
IP10 ([2]; BMDM hSTING+/indel): 1541.25 pg/mL
IFNg (IFN-γ; 400μg intratumorally): 39.4953 pg/mL and 46.0042 pg/mL and 12.5471 pg/mL and 24.0798 pg/mL and 11.9723 pg/mL and 24.0458 pg/mL and 11.7115 pg/mL and 37.7 pg/mL and 31.9987 pg/mL
IFNg (IFN-γ; 800μg intratumorally): 69.5013 pg/mL and 56.155 pg/mL and 39.6205 pg/mL and 20.7743 pg/mL and 42.9846 pg/mL and 43.1066 pg/mL and 31.0552 pg/mL and 38.6876 pg/mL and 47.5545 pg/mL
plasma IFNγ level in words (IFN-γ; 6-hour post dosing): significant increase of plasma IFNγ level
induction of STING oligomerization in words [3]: alone was able to induce high-order oligomers of STING
